Consider five compounds from patent publication US11110104B2, “Glutamine antagonists for the treatment of cognitive deficits and psychiatric disorders” (THE JOHNS HOPKINS UNIVERSITY, priority 2015, dated 2021).

Structures are written as SMILES. Entries after “also recorded” stand apart in the source; their conditions may differ. Read-outs that look alike come from different tables or passages of the source.

Series [1] concerns CSDS mice. The experiment in a line: Sucrose preference test after CSDS. It is filed as in vivo, mouse. The protocol:
(§1) Compound 25 was synthesized by our laboratory. For all pharmacokinetic and efficacy studies, compound 25 was administered per oral (p.o.) at a dose of 1.82 mg/kg (1 mg/kg DON equivalent) in 50 mM HEPES-buffered saline.
The sucrose preference test was performed according to a previously described protocol (Cao et al, 2013; Roybal et al, 2007). The mice were singly caged before the test. On day 1, their normal water bottles were replaced with two 50 ml tubes (bottle ‘A’ and bottle ‘B’) fitted with bottle stoppers containing two-balled sipper tubes. The position of bottles A and B were switched daily to avoid a side bias, and the fluid consumed from each bottle was measured daily. During days 1 and 2, bottles A and B were filled with normal drinking water (W/W). During days 3 and 4, both bottles were filled with a solution of 1.5% sucrose dissolved in drinking water (S/S). On days 5-8, bottle A contained 1.5% sucrose, and bottle B contained drinking water […]. Sucrose preference on each day for each mouse was calculated as 100%×(Vol A/(Vol A+Vol B)) and averaged across the days for a given condition (W/W, S/S, or S/W). The average of total fluid consumption was also calculated as (Vol A+Vol B).
To examine the effect of compound 25 treatment on anhedonia-like behavior, control and CSDS mice were subjected to an 8-day sucrose preference test.

Series [2] concerns CSDS mice. Briefly: Three-chambered social approach test after chronic social defeat stress (CSDS). It is filed as in vivo, mouse. How it is done:
as §1
Male 7- to 8-week-old C57BL/6J (C57) mice (25-30 g; Jackson Laboratory, Bar Harbor, Me.) and 4- to 6-month-old CD-1 retired breeders (35-45 g; Charles River Laboratories, Wilmington, Mass.) were used for all experiments. Mice were housed on a reversed 12-h light/dark cycle, and maintained in a humidity- and temperature-controlled room with water and food available ad libitum. CD-1 mice were singly housed except during social defeats. C57 mice were group housed before starting CSDS and singly housed after CSDS. Behavioral experiments were conducted during the dark cycle. All studies were conducted with approved protocols from the Johns Hopkins University Institutional Animal Care and Use Committee and were in accordance with the NIH guidelines for the Care and Use of Laboratory Animals.
Mice were exposed to CSDS and subsequently administered compound 25 or vehicle every other day for 12 days (FIG. 14A). To examine the effect of compound 25 treatment on behavioral phenotypes induced by CSDS, we first tested the mice in the three-chambered social approach test, where the social approach of a mouse toward a stranger mouse trapped in a wire cage was measured.

A further series relates to glutamate in CSF. Briefly: CSF glutamate levels in EcoHIV mice (LC/MS). It is filed as in vivo, mouse. The protocol: CSF samples were derivatized with dabsyl chloride for analysis. To prepare a dabsyl chloride stock, acetone was added to dabsyl chloride to 10 mM concentration, vortexed, water bath sonicated for 10 minutes followed by heating to 60° C. for 10 minutes, vortexing again, centrifugation for 5 minutes at 16,000×g and taking the supernatant. Ten microliter standards of glutamate were prepared in artificial CFS by serial dilution. To each standard and sample, one volume of 0.2 M sodium bicarbonate buffer (pH 9.0 containing 100 μM glutamate-d5 as internal standard) and 2 volumes dabsyl chloride stock was added. Samples were incubated at 60° C. 10 minutes to derivatize. […] Glutamate was quantifiable to 10 nM.
Male C57BL6 mice were sham or EcoHIV-inoculated (4e6 pg p24, i.p.) then randomized to receive vehicle or compound 25 (1.82 mg/kg, i.p. every other day) beginning 15 post-inoculation. On day 33 post-inoculation, all mice were deeply anesthetized with isoflurane 30 minutes post-last dose, and CSF was terminally sampled from the cistema magna prior to measurement of glutamate concentrations by LC/MS-MS. EcoHIV infection caused increases in CSFS glutamate that were normalized by compound 25 treatment. Excluding values >2SD from mean, n=4-5/group. Analysis by two-way ANOVA followed by post-hoc Fisher's LSD, *p<0.05, ***p<0.001. Data are presented as the mean+SEM.

For the next series, the system named is NRGN. The experiment in a line: Gene expression by QPCR in basal ganglia brain tissues of EcoHIV-infected mice. In kind it is in vivo, mouse. The note with it: DON treatment reversal experiment; tissues collected 15 min after last DON treatment.
The nature of series [3]: DON levels in plasma, CSF and basal ganglia of mice (LC-MS/MS). In kind it is in vivo. The note with it: C57Bl, mouse, 15 minutes after dosing, DON 1 mg/kg. The protocol: DON was spiked into untreated mouse plasma to generate standards at concentrations from 10 nM to 100 μM at half-log intervals. Butanol with 3N HCl (250 μL) was added to standards and samples (50 μL) and centrifuged at 16,000×g for 5 minutes to precipitate proteins. […] After derivatization the samples were dried at 45° C. under a nitrogen stream. Samples were resuspended in 50 μL 70/30 water/acetonitrile, vortexed and centrifuged at 16,000×g. […] Standards within the quantifiable range were used to generate a standard curve. Samples below the limit of quantification (BLQ) were assigned a value of 0.
Brain analysis: Brain sections were weighed. DON was spiked into untreated mouse brain tissue to generate standards as described above. Butanol with 3N HCl (5 μL/mg) was added to standards and samples and homogenized by pestle followed by centrifugation at 16,000×g. An aliquot (200 μL) of the supernatant was transferred to a new tube and processed as described in the plasma analysis section. Twenty microliters was injected for analysis as described hereinabove.

A further series relates to EAE mice. The conditions noted are these: cited from earlier work.
The subject of series [4] is EcoHIV-infected mice. Briefly: Radial arm water maze, DON prophylaxis in EcoHIV-infected mice.
The test system of a further series is STX1A. The experiment in a line: Gene expression by QPCR in basal ganglia brain tissues of EcoHIV-infected mice. It is filed as in vivo, mouse. The conditions noted are these: DON treatment reversal experiment; tissues collected 15 min after last DON treatment. The protocol:
Relative extent of gene expression tested by QPCR in basal ganglia brain tissues obtained from mice tested in DON treatment reversal experiment shown in FIG. 2A, FIG. 2B, and FIG. 2C. The tissues were collected 15 min after the last DON treatment;

The subject of series [5] is EcoHIV-infected mice. Briefly: Radial arm water maze, therapeutic DON treatment of EcoHIV-infected mice. In kind it is in vivo, mouse. The note with it: DON 1 mg/kg every other day started 26 days after EcoHIV infection; tests from day 30. How it is done: The experimental design was for DON prophylaxis except that mice were infected first and DON administration at 1 mg/kg every other day started on Day 26 after infection.

Series [6] in a line: Pharmacokinetics of DON in swine plasma and CSF. The note with it: 60 min post-administration.
The test system of another series is LPS-treated mice. The experiment in a line: LPS-induced deficit in contextual fear memory reconsolidation. The conditions noted are these: 1.9 mg/kg, i.p. co-administered with LPS 0.3 mg/kg, i.p. on Day 2. In kind it is in vivo, mouse. How it is done: Fear conditioning and testing were performed in sound-attenuating chambers equipped with a metal grid floor to deliver calibrated inescapable footshocks. Fear conditioning (Day 1) consisted of a 2 minute habituation period followed by three 20 second 80 dB 2 kHz tones co-terminating in 0.4 mA footshocks separated by 1 minute interstimulus intervals. One day later (Day 2), each mouse was randomized into one of four treatment groups (PBS/Vehicle, PBS/9, LPS/Vehicle, LPS/9) and co-administered either LPS (0.3 mg/kg, i.p.) or filtered PBS with either 9 (1.9 mg/kg, i.p.) or Vehicle. Four hours later, each mouse was exposed to a reactivation session in which they were placed back in the fear conditioning context for 15 minutes. One day later (Day 3), each mouse underwent a test for fear memory reconsolidation by being placed again in the fear conditioning context for 10 minutes. For each session, time spent freezing was determined using automated motion detection software (CleverSys) and converted to percentages.
Freezing percentages during the reconsolidation test were grouped by treatment into 2 minute bins. Between group differences were determined by repeated measure two-way ANOVA and post hoc Dunnett's test with significance defined as p<0.05.

Series [7] in a line: Stability in human plasma. It is filed as in vitro ADME.
Series [8] can be described thus: Stability in monkey plasma. In kind it is in vitro ADME.
Setting [9] is: DON 1 mg/kg, i.p., […], 30 days post-infection.

Consider `CCOC(=O)[C@H](CCC(=O)C=[N+]=[N-])NC(=O)[C@@H](N)CC(C)C` [Compound 25], for which, in the series on CSDS mice [1] (1.82 mg/kg p.o. (1 mg/kg DON equivalent), CSDS mice), the “sucrose consumption (sucrose preference) in the CSDS group, days 5-8” value is listed as “markedly restored sucrose consumption”. In addition, the “sucrose consumption (sucrose preference) in controls, days 5-8” value in the series on CSDS mice [1] (1.82 mg/kg p.o., control mice) is reported as “no change was observed in controls”. Further, the “social behaviors (time in chamber, time sniffing) in mice subjected to CSDS” value with CSDS mice [2] (1.82 mg/kg p.o. (1 mg/kg DON equivalent) every other day for 12 days after CSDS) is “normalized observed social behaviors”. Further, the “sociability in control mice” value with CSDS mice [2] (1.82 mg/kg p.o. every other day for 12 days, control mice) was “no effect on sociability in control mice”. Moreover, the “EcoHIV-induced increases in CSF glutamate concentration” value with glutamate in CSF (1.82 mg/kg, i.p. every other day, CSF sampled day 33 post-inoculation, 30 minutes post-last dose) is listed as “significantly reversed EcoHIV-induced increases in CSF glutamate concentration”.
Take `[N-]=[N+]=CC(=O)CC[C@H](N)C(=O)O` [DON, 6-diazo-5-oxo-L-norleucine]: the “NRGN gene expression in basal ganglia” value with NRGN is “reversed HIV-mediated down-modulation”. Further, the concentration at 15 min in series [3] (CSF, read-out: DON concentration in CSF) is 300 to 500 nM; in series [3] (brain (basal ganglia), read-out: DON concentration in brain tissue (basal ganglia)), 300 to 500 nM; in series [3] (plasma, read-out: DON concentration in plasma) it was 2500 to 3000 nM. Moreover, the “EAE (disease score), DON from time of immunization” value with EAE mice (DON i.p. q.a.d. 1.6 mg/kg from the time of immunization (Shijie, et al., 2009)) is on record as “attenuates EAE”. In addition, the “EAE (disease score), lower doses of DON” value in the series on EAE mice (DON i.p. q.a.d., doses lower than 1.6 mg/kg (Shijie, et al., 2009)) is “ineffective”. The “HIV-induced cognitive impairment (radial arm water test, learning and memory)” value in the series with EcoHIV-infected mice [4] (DON 1 mg/kg on alternate days from 24 h before EcoHIV infection, tested 30 days after infection) was “prevents development of HIV-induced cognitive impairment”. Further, the “cognitive performance as measured by errors (RAWM, hidden platform)” value in the series with EcoHIV-infected mice [4] (setting [9]) is “fully normalized cognitive performance”. In the series with EcoHIV-infected mice [4] (setting [9]), the “cognitive performance as measured by latency to escape (RAWM, hidden platform)” value was “fully normalized cognitive performance”. Moreover, the “glutamate in CSF of EcoHIV mice” value in the series on glutamate in CSF (DON-treated mice, no significant differences by one-way ANOVA) is recorded as “tended to decrease the glutamate in the EcoHIV mice”. The “STX1A gene expression in basal ganglia” value in the series on STX1A was “reversed HIV-mediated down-modulation”. Further, in the series with EcoHIV-infected mice [5], the “cognitive disease (radial arm water maze)” value was “completely abrogates (reverses) cognitive disease”.
As for `CC(C)OC(=O)[C@H](CCC(=O)C=[N+]=[N-])NC(=O)OC(OC(=O)C(C)(C)C)c1ccccc1` (stereo partly drawn) [Compound 47], in series [6], the “CSF-to-plasma ratio of DON relative to DON” value is “increased CSF-to-plasma ratios” and the “amount of DON delivered to the CSF relative to DON” value is listed as “substantially higher amounts of DON to the CSF”.
In the case of `CC(C)C[C@H](N)C(=O)N[C@@H](CCC(=O)C=[N+]=[N-])C(=O)OC(C)C` [Compound 9], in the series on LPS-treated mice, the “LPS-induced reduced freezing during the reconsolidation test (Day 3)” value is “attenuated; also recorded: indistinguishable from PBS/Veh mice”.
Consider `CC(C)OC(=O)[C@H](CCC(=O)C=[N+]=[N-])NC(=O)O[C@H](C)OC(=O)C(C)(C)C` (single isomer, unassigned) [Compound 14b], for which the “stability in human plasma” value in series [7] is given as “unexpected stability”. Further, the “stability in monkey plasma” value in series [8] is on record as “unexpected stability”. In [6], the “CSF-to-plasma ratio of DON relative to DON” value was “increased CSF-to-plasma ratios” and the “amount of DON delivered to the CSF relative to DON” value is reported as “substantially higher amounts of DON to the CSF”.
